Patent US20240199572A1, “COMPOUNDS, COMPOSITIONS, AND METHODS FOR TREATING TYPE 2 DIABETES AND DEMENTIA” (THE BOARD OF TRUSTEES OF THE UNIVERSITY OF ILLINOIS, priority 2021, published 2024)

Experiments:
Assay type in all cases: cell-based
J774 cells [1] = test: BODIPY-cholesterol efflux from J774 macrophages to apoA1
Method: Cholesterol Efflux. Plated J774 cells (RRID:CVCL 0358) purchased from ATCC and used without further validation were incubated in serum-free medium containing 0.5 μM BODIPY-cholesterol (Cayman) for 24 hours. Medium was replaced with fresh serum-free medium containing test compound for 24 hours. For experiments with probucol (Sigma), it was added at 20 μM for the final 2 hours with test compound. Then, fresh serum-free medium containing 20 μg/mL purified recombinant apolipoprotein A1 (Sigma) was added for 6 hours. Acceptor-containing medium was transferred to a new plate, while cells were lysed with RIPA buffer. Fluorescence (Ex480/Em530) was measured in both components, with data reported as % efflux=(medium fluorescence)/(medium fluorescence+lysate fluorescence) normalized to background efflux (% efflux in DMSO-treated cells without exogenous apoA1).

ABCA1 = test: ABCA1-linked luciferase assay in HepG2 cells
Method: Luciferase. HepG2 cells (RRID:CVCL 0027) purchased from ATCC and used without further validation were stably transfected with pGreenFire1-LXRE-in-ABCA1 plasmid, which contains the ABCA1 promoter sequence linked to a luciferase response element, then selected over multiple generations with puromycin and frozen in liquid N2. For assays, transfected cells were plated 24 hours in medium (Gibco) containing charcoal-stripped serum (Gemini), followed by a 24-hour treatment. Cells were lysed with passive lysis buffer (Promega), frozen at −80° C. for 15 minutes, and shaken at room temperature for 2 hours before quantification with luciferase assay system (Promega) on a Synergy Neo2 plate reader.

J774 cells [2] = test: siRNA knockdown of LXRα/LXRβ in J774 cells
Method: siRNA Knockdown. J774 cells were plated in 24-well plates in serum-containing medium, to which an additional 100 μL of medium containing 10 pmol of siRNA and 3 μL of LIPOFECTAMINE® RNAIMAX® transfection reagent (Thermo Fisher Scientific) were added. After 24 hours, serum-free medium containing 10 μM C12-57 or vehicle control was added to each well for 24 hours. Cells were lysed and analyzed per qPCR and immunoblot procedures above. siRNAs used: Thermo Fisher 188584 (Nr1h3 silencer), 186947 (Nr1h2 silencer), and AM4611 (Silencer Negative Control siRNA #1).

EC50 (ABCA1; Homo sapiens, HepG2 liver cells, read-out: EC50, ABCA1-linked luciferase activity): 1800 nM
SMILES: CCOC(=O)c1cccc(NC(=O)c2sc(Cl)cc2S(=O)(=O)N(C)c2ccc(OCC)c(OCC)c2)c1 [CL2-57, ethyl 3-(5-chloro-3-(N-(3,4-diethoxyphenyl)-N-methylsulfamoyl)thiophene-2-carboxamido) benzoate]
Cholesterol Efflux - J774, activity of CL2-57 (10 μM) as % of T0901317 (1 μM) (J774 cells [1]; 10 μM): 183%
Cholesterol efflux from macrophages to apoA1 (J774 cells [1]; fluorescent BODIPY-tagged cholesterol): dose-dependently increased
Increased cholesterol efflux with ABCA1 inhibitor probucol (J774 cells [1]; probucol 20 μM for the final 2 hours): blocked
ABCA1 luciferase, activity of CL2-57 (10 μM) as % of T0901317 (1 μM) (ABCA1; 10 μM): 127%
Emax, ABCA1-linked luciferase activity (ABCA1; HepG2 liver cells): 250 % of vehicle
ABCA1-linked luminescence with CL2-57 titration (ABCA1; in the presence of RXR agonist bexarotene, increased from 2.5-fold): 4.5 fold
ABCA1-linked luminescence with CL2-57 titration (ABCA1; in the presence of pan-LXR agonist T0901317): no increase
ABCA1 induction under LXR siRNA knockdown (J774 cells [2]; 10 μM, J774): mediated by LXRβ
Induction of Abcg1 under LXR siRNA knockdown (J774 cells [2]; J774): reduced by LXRβ knockdown
Induction of Slc2a1 (GLUT1) under LXR siRNA knockdown (J774 cells [2]; J774): reduced by LXRβ knockdown
Irs1 increases under LXR siRNA knockdown (J774 cells [2]; J774): not affected by loss of either LXR isoform
LXR target gene Apoe (J774 cells [2]; J774 cells): not significantly affected
